SMILES strings stand for the structures.

The assay has as its system HCV replicon. The assay can be described thus: Replicon based assay of HCV replication inhibition (NPT ELISA). It counts as cell-based, Hepatitis C virus. Particulars: Hepatitis C virus, replicon based assay of HCV replication inhibition; Table II; read-out: Activity. A digest of the protocol:
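NPT (neomycin phosphotransferase) content, proportional to replicon replication, quantified by capture ELISA on day four. Before that, replicon-bearing Huh-7 cells in G418-free screening medium were exposed three days at 37° C to compound, typically six doses from 10 to 0.03 micromolar, with equal DMSO across wells.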
(In general: Replicon systems follow genome replication, usually without infectious particles.)
Take `CCCCCOc1ccc(Nc2nc(-c3ccccn3)cs2)cc1C(F)(F)F` [compound 409, N-(3-(trifluoromethyl)-4-(pentyloxy)phenyl)-4-(pyridin-2-yl)thiazol-2-amine]: the EC50 is less than 1000 nM.

As to `CCCCCOc1ccc(Nc2nc(-c3c[nH]c4ccccc34)cs2)cc1C(F)(F)F` [compound 410, N-(3-(trifluoromethyl)-4-(pentyloxy)phenyl)-4-(1H-indol-3-yl)thiazol-2-amine], the EC50 was less than 1000 nM.

Consider `CCCCCOc1ccc(Nc2nc(-c3ccc(-c4ccccn4)s3)cs2)cc1C(F)(F)F` [compound 411, N-(3-(trifluoromethyl)-4-(pentyloxy)phenyl)-4-(5-(pyridin-2-yl)thiophen-2-yl)thiazol-2-amine], for which the EC50 is less than 1000 nM.

As to `CCCCCOc1ccc(Nc2nc(-c3nc4ccccc4s3)cs2)cc1C(F)(F)F` [compound 412, 4-(benzo[d]thiazol-2-yl)-N-(3-(trifluoromethyl)-4-(pentyloxy)phenyl)thiazol-2-amine], the EC50 was less than 1000 nM.

As for `CCCCCOc1ccc(Nc2nc(-c3cc4ccccc4o3)cs2)cc1C(F)(F)F` [compound 413, 4-(benzofuran-2-yl)-N-(3-(trifluoromethyl)-4-(pentyloxy)phenyl)thiazol-2-amine], the EC50 is less than 1000 nM.

Regarding `CCCCCOc1ccc(Nc2nc(-c3sc(-c4cnccn4)nc3C)cs2)cc1C(F)(F)F` [compound 414, N-(3-(trifluoromethyl)-4-(pentyloxy)phenyl)-4-(4-methyl-2-(pyrazin-2-yl)thiazol-5-yl)thiazol-2-amine], the EC50 was less than 1000 nM.

For the molecule `CCCCCOc1ccc(Nc2nc(CC)cs2)cc1C(F)(F)F` [compound 415, 4-ethyl-N-(3-(trifluoromethyl)-4-(pentyloxy)phenyl)thiazol-2-amine], the EC50 was less than 1000 nM.

Consider `CCCCCCCCOc1ccc(Nc2nc(-c3ccncc3)cs2)cc1` [compound 416, N-(4-(octyloxy)phenyl)-4-(pyridin-4-yl)thiazol-2-amine], for which the EC50 was less than 1000 nM.

Consider `CCCCCOc1ccc(Nc2nc(-c3ccncc3)cs2)cc1F` [compound 417, N-(3-fluoro-4-(pentyloxy)phenyl)-4-(pyridin-4-yl)thiazol-2-amine], for which the EC50 fell in the range of 1000 to 10000 nM.

For the molecule `CCCCCOc1ccc(Nc2nc(-c3ccccn3)cs2)cc1F` [compound 418, N-(3-fluoro-4-(pentyloxy)phenyl)-4-(pyridin-2-yl)thiazol-2-amine], the EC50 was less than 1000 nM.

Take `CCCCCOc1ccc(Nc2nc(-c3cc4ccccc4o3)cs2)cc1F` [compound 419, 4-(benzofuran-2-yl)-N-(3-fluoro-4-(pentyloxy)phenyl)thiazol-2-amine]: the EC50 lay within 1000 to 10000 nM.

For the molecule `CCCCCCCOc1ccc(Nc2nc(-c3ccc(F)cc3)cs2)cc1` [compound 420, 4-(4-fluorophenyl)-N-(4-(heptyloxy)phenyl)thiazol-2-amine], the EC50 is less than 1000 nM.

Consider `CCCCCCCOc1ccc(Nc2nc(-c3ccc(Cl)c(Cl)c3)cs2)cc1` [compound 421, 4-(3,4-dichlorophenyl)-N-(4-(heptyloxy)phenyl)thiazol-2-amine], for which the EC50 is less than 1000 nM.

With `CCCCCCCOc1ccc(Nc2nc(-c3ccc(Cl)cc3)cs2)cc1` [compound 422, 4-(4-chlorophenyl)-N-(4-(heptyloxy)phenyl)thiazol-2-amine], the EC50 is less than 1000 nM.

On to `CCCCCCCOc1ccc(Nc2nc(-c3ccc(F)cc3F)cs2)cc1` [compound 423, 4-(2,4-difluorophenyl)-N-(4-(heptyloxy)phenyl)thiazol-2-amine], for which the EC50 is less than 1000 nM.

Take `CCCCCCCOc1ccc(Nc2nc(-c3ccc(OC)cc3)cs2)cc1` [compound 424, N-(4-(heptyloxy)phenyl)-4-(4-methoxyphenyl)thiazol-2-amine]: the EC50 was less than 1000 nM.

For the molecule `CCCCCCCOc1ccc(Nc2nc(-c3ccc(OCC(=O)O)cc3)c(C)s2)cc1` [compound 425, 2-(4-(2-(4-(heptyloxy)phenylamino)-5-methylthiazol-4-yl)phenoxy)acetic acid], the EC50 is less than 1000 nM.

(Values after US8088806B2 (Achillion Pharmaceuticals, Inc., priority 2005, dated 2012).)
